Data published in the supplement of paper PMC10326909.

Assay: ESI positive response factor (isotope-corrected peak area per molar concentration) in SFC/ESI/HRMS (area units per M); higher = higher ionization efficiency
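Also: standards in acetonitrile/water run in triplicate on a zwitterionic HILIC column, CO2–methanol gradient containing 20 mmol/L ammonium acetate, postcolumn makeup flow, Orbitrap full-scan detection.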

SMILES: CCC[C@@H]1O[C@@H]2C[C@H]3[C@@H]4CCC5=CC(=O)C=C[C@]5(C)[C@H]4[C@@H](O)C[C@]3(C)[C@]2(C(=O)CO)O1 [Budesonid]
- ESI positive response factor (0.0175 µM): 1.27e+17
- ESI positive response factor (0.035 µM): 1.3e+17
- ESI positive response factor (0.0875 µM): 1.25e+17
- ESI positive response factor (0.175 µM): 1.16e+17
- ESI positive response factor (0.35 µM): 1.25e+17

SMILES: COc1ccc(O)c(C(C)(C)C)c1 [Butylated hydroxyanisole]
- ESI positive response factor (0.0875 µM): 3.78e+15
- ESI positive response factor (0.175 µM): 2.82e+15
- ESI positive response factor (0.35 µM): 3.32e+15
- ESI positive response factor (0.875 µM): 3.01e+15

SMILES: Cn1c(=O)c2c(ncn2C)n(C)c1=O [Caffeine]
- ESI positive response factor (0.0175 µM): 2.34e+17
- ESI positive response factor (0.035 µM): 2.22e+17
- ESI positive response factor (0.0875 µM): 2.03e+17

SMILES: CCOc1nc2cccc(C(=O)O)c2n1Cc1ccc(-c2ccccc2-c2nnn[nH]2)cc1 [Candesartan]
- ESI positive response factor (0.0175 µM): 5.17e+16
- ESI positive response factor (0.035 µM): 8.14e+16
- ESI positive response factor (0.0875 µM): 8.12e+16
- ESI positive response factor (0.175 µM): 8.2e+16
- ESI positive response factor (0.35 µM): 8.92e+16
- ESI positive response factor (0.875 µM): 9.01e+16
- ESI positive response factor (1.75 µM): 8.46e+16

SMILES: CCNC(=O)[C@H](C)OC(=O)Nc1ccccc1 [Carbetamid]
- ESI positive response factor (0.0175 µM): 5.72e+16
- ESI positive response factor (0.035 µM): 7.07e+16
- ESI positive response factor (0.0875 µM): 6.85e+16
- ESI positive response factor (0.175 µM): 6.12e+16
- ESI positive response factor (0.35 µM): 6.45e+16

SMILES: CNC(=O)Oc1cccc2c1OC(C)(C)C2 [Carbofuran]
- ESI positive response factor (0.0175 µM): 8.85e+16
- ESI positive response factor (0.035 µM): 8.12e+16
- ESI positive response factor (0.0875 µM): 8.68e+16
- ESI positive response factor (0.175 µM): 7.6e+16
- ESI positive response factor (0.35 µM): 9.93e+16

SMILES: CC1=C(C(=O)Nc2ccccc2)SCCO1 [Carboxin]
- ESI positive response factor (0.0175 µM): 7.6e+16
- ESI positive response factor (0.035 µM): 1.1e+17
- ESI positive response factor (0.0875 µM): 1.07e+17
- ESI positive response factor (0.175 µM): 9.93e+16
- ESI positive response factor (0.35 µM): 1.1e+17

SMILES: CON(C)C(=O)Nc1ccc(Br)c(Cl)c1 [Chlorbromuron]
- ESI positive response factor (0.035 µM): 4.74e+16
- ESI positive response factor (0.0875 µM): 4.82e+16
- ESI positive response factor (0.175 µM): 4.62e+16
- ESI positive response factor (0.35 µM): 5.21e+16

SMILES: CCOP(=O)(OCC)OC(=CCl)c1ccc(Cl)cc1Cl [Chlorfenvinphos]
- ESI positive response factor (0.0175 µM): 2.81e+17
- ESI positive response factor (0.035 µM): 3.28e+17
- ESI positive response factor (0.0875 µM): 3.25e+17
- ESI positive response factor (0.175 µM): 2.98e+17
- ESI positive response factor (0.35 µM): 4.34e+17

SMILES: Nc1cnn(-c2ccccc2)c(=O)c1Cl [Chloridazon]
- ESI positive response factor (0.0175 µM): 7.49e+16
- ESI positive response factor (0.035 µM): 1.01e+17
- ESI positive response factor (0.0875 µM): 8.99e+16

SMILES: C[N+](C)(C)CCCl [Chlormequate]
- ESI positive response factor (0.0175 µM): 1.55e+17
- ESI positive response factor (0.035 µM): 1.26e+17
- ESI positive response factor (0.0875 µM): 1.95e+17
- ESI positive response factor (0.175 µM): 1.76e+17
- ESI positive response factor (0.35 µM): 1.85e+17

SMILES: COc1nc(C)nc(NC(=O)NS(=O)(=O)c2ccccc2Cl)n1 [Chlorsulfuron]
- ESI positive response factor (0.035 µM): 4.22e+16
- ESI positive response factor (0.0875 µM): 4.88e+16
- ESI positive response factor (0.175 µM): 5.05e+16
- ESI positive response factor (0.35 µM): 5.61e+16
- ESI positive response factor (0.875 µM): 5.75e+16
- ESI positive response factor (1.75 µM): 5.77e+16

SMILES: Cc1ccc(NC(=O)N(C)C)cc1Cl [Chlortoluron]
- ESI positive response factor (0.0175 µM): 1.29e+17
- ESI positive response factor (0.035 µM): 1.32e+17
- ESI positive response factor (0.0875 µM): 1.48e+17
- ESI positive response factor (0.175 µM): 1.28e+17
- ESI positive response factor (0.35 µM): 1.4e+17

SMILES: CN=C(NC#N)NCCSCc1nc[nH]c1C [Cimetidine]
- ESI positive response factor (0.0175 µM): 6.5e+16
- ESI positive response factor (0.035 µM): 9.26e+16
- ESI positive response factor (0.0875 µM): 8.81e+16
- ESI positive response factor (0.175 µM): 8.23e+16
- ESI positive response factor (0.35 µM): 9.32e+16
- ESI positive response factor (0.875 µM): 8.86e+16

SMILES: Nc1ccnc(=O)[nH]1 [Cytosine]
- ESI positive response factor (0.35 µM): 2.81e+15
- ESI positive response factor (0.875 µM): 3.21e+15
- ESI positive response factor (1.75 µM): 3.05e+15

SMILES: CCN(CC)C(=O)c1cccc(C)c1 [DEET]
- ESI positive response factor (0.35 µM): 4.74e+17
- ESI positive response factor (0.875 µM): 4.86e+17

SMILES: CN(C)N/N=C1/N=CN=C1C(N)=O [Dacarbazine]
- ESI positive response factor (0.0875 µM): 2.45e+15
- ESI positive response factor (0.175 µM): 5.22e+15

SMILES: Nc1ccc(S(=O)(=O)c2ccc(N)cc2)cc1 [Dapson]
- ESI positive response factor (0.0175 µM): 6.07e+16
- ESI positive response factor (0.035 µM): 8.29e+16
- ESI positive response factor (0.0875 µM): 8.16e+16

SMILES: CCOP(=S)(OCC)Oc1cc(C)nc(C(C)C)n1 [Diazinon]
- ESI positive response factor (0.0175 µM): 3.13e+16
- ESI positive response factor (0.035 µM): 5.67e+16
- ESI positive response factor (0.0875 µM): 3.71e+16
- ESI positive response factor (0.175 µM): 5.13e+16

SMILES: O=C(O)Cc1ccccc1Nc1c(Cl)cccc1Cl [Diclofenac]
- ESI positive response factor (0.35 µM): 3.71e+15
- ESI positive response factor (0.875 µM): 5.3e+15
- ESI positive response factor (1.75 µM): 5.19e+15

SMILES: N#CN=C(N)N [Dicyandiamide]
- ESI positive response factor (0.035 µM): 3.07e+15
- ESI positive response factor (0.0875 µM): 4.26e+15
- ESI positive response factor (0.175 µM): 3.9e+15
- ESI positive response factor (0.35 µM): 4.96e+15
- ESI positive response factor (0.875 µM): 6.05e+15
- ESI positive response factor (1.75 µM): 6.06e+15

SMILES: CNC(=O)CSP(=S)(OC)OC [Dimethoate]
- ESI positive response factor (0.0175 µM): 5.46e+16
- ESI positive response factor (0.035 µM): 5.3e+16
- ESI positive response factor (0.0875 µM): 5.84e+16
- ESI positive response factor (0.175 µM): 5.04e+16
- ESI positive response factor (0.35 µM): 5.56e+16

SMILES: COC(=O)CCCCCCCCC(=O)OC [Dimethylsebacate]
- ESI positive response factor (0.0175 µM): 7.67e+16
- ESI positive response factor (0.035 µM): 7.64e+16
- ESI positive response factor (0.0875 µM): 6.02e+16
- ESI positive response factor (0.175 µM): 5.72e+16

SMILES: CN(C)C(=O)C(c1ccccc1)c1ccccc1 [Diphenamid]
- ESI positive response factor (0.0175 µM): 1.12e+17
- ESI positive response factor (0.035 µM): 1.02e+17
- ESI positive response factor (0.0875 µM): 1.09e+17
- ESI positive response factor (0.175 µM): 9.79e+16
- ESI positive response factor (0.35 µM): 1.13e+17

SMILES: CN(C)CCOC(c1ccccc1)c1ccccc1 [Diphenhydramine]
- ESI positive response factor (0.0175 µM): 1.59e+17
- ESI positive response factor (0.035 µM): 2.23e+17
- ESI positive response factor (0.0875 µM): 2.16e+17
- ESI positive response factor (0.175 µM): 2.35e+17
- ESI positive response factor (0.35 µM): 2.4e+17
- ESI positive response factor (0.875 µM): 2.25e+17

SMILES: CCN[C@H]1C[C@H](C)S(=O)(=O)c2sc(S(N)(=O)=O)cc21 [Dorzolamide]
- ESI positive response factor (0.035 µM): 8.5e+15
- ESI positive response factor (0.0875 µM): 9.06e+15
- ESI positive response factor (0.175 µM): 1.22e+16
- ESI positive response factor (0.35 µM): 1.22e+16
- ESI positive response factor (0.875 µM): 1.24e+16
- ESI positive response factor (1.75 µM): 1.24e+16
